# Laboratory results from ChEMBL document CHEMBL3632552, “Discovery of (phenoxy-2-hydroxypropyl)piperidines as a novel class of voltage-gated sodium channel 1.7 inhibitors” (Bioorg Med Chem Lett, 2015).
# Assays:
# [1] = target: Sodium channel protein type 5 subunit alpha (Homo sapiens, UniProt Q14524); assay: Inhibition of human NaV1.5 by IonWorks quattro automated electrophysiology assay
# [2] = target: Sodium channel protein type 1 subunit alpha (Homo sapiens, UniProt P35498); assay: Inhibition of human NaV1.1 by IonWorks quattro automated electrophysiology assay
# [3] = target: Sodium channel protein type 9 subunit alpha (Mus musculus, UniProt Q62205); assay: Inhibition of mouse NaV1.7 by IonWorks quattro automated electrophysiology assay
# [4] = target: Sodium channel protein type 9 subunit alpha (Homo sapiens, UniProt Q15858); assay: Inhibition of human NaV1.7 by IonWorks quattro automated electrophysiology assay
# Mus musculus [5] = species on record: Mus musculus; assay: Analgesic activity in mouse assessed as inhibition of acetic acid-induced writhing response; format: functional
# [6] = target: Sodium channel protein type 1 subunit alpha (Mus musculus, UniProt A2APX8); assay: Inhibition of mouse NaV1.1 by IonWorks quattro automated electrophysiology assay
# Mus musculus [7] = assay: Toxicity in po dosed mouse assessed as reduction of locomotor activity; format: organism-based; settings: in vivo
# [8] = AUC in db/db mouse at 30 mg/kg, po; format: ADME, organism-based; settings: in vivo
# [9] = Tmax in db/db mouse at 30 mg/kg, po; format: ADME, organism-based; settings: in vivo
# Plasma = assay: Fraction unbound in mouse plasma; format: ADME, cell-free
# Mus musculus [10] = assay: Toxicity in mouse assessed as reduction of locomotor activity at 100 mg/kg, po; format: organism-based; settings: in vivo
# [11] = Cmax in db/db mouse at 30 mg/kg, po; format: ADME, organism-based; parameters: dose 30 mg/kg, route oral; settings: in vivo
# [12] = Tmax in CD mouse at 30 mg/kg, po; format: ADME, organism-based; settings: in vivo
# [13] = Cmax in CD mouse at 30 mg/kg, po; format: ADME, organism-based; parameters: dose 30 mg/kg, route oral; settings: in vivo
# [14] = AUC in CD mouse at 30 mg/kg, po; format: ADME, organism-based; settings: in vivo
# [15] = Therapeutic index, ratio of toxic ID50 in mouse to analgesic activity ED50 in mouse; format: organism-based; settings: in vivo, read-out: TI
# Sodium channel protein type 9 subunit alpha (Mus musculus, UniProt Q62205), sequence (Q62205 whole entry): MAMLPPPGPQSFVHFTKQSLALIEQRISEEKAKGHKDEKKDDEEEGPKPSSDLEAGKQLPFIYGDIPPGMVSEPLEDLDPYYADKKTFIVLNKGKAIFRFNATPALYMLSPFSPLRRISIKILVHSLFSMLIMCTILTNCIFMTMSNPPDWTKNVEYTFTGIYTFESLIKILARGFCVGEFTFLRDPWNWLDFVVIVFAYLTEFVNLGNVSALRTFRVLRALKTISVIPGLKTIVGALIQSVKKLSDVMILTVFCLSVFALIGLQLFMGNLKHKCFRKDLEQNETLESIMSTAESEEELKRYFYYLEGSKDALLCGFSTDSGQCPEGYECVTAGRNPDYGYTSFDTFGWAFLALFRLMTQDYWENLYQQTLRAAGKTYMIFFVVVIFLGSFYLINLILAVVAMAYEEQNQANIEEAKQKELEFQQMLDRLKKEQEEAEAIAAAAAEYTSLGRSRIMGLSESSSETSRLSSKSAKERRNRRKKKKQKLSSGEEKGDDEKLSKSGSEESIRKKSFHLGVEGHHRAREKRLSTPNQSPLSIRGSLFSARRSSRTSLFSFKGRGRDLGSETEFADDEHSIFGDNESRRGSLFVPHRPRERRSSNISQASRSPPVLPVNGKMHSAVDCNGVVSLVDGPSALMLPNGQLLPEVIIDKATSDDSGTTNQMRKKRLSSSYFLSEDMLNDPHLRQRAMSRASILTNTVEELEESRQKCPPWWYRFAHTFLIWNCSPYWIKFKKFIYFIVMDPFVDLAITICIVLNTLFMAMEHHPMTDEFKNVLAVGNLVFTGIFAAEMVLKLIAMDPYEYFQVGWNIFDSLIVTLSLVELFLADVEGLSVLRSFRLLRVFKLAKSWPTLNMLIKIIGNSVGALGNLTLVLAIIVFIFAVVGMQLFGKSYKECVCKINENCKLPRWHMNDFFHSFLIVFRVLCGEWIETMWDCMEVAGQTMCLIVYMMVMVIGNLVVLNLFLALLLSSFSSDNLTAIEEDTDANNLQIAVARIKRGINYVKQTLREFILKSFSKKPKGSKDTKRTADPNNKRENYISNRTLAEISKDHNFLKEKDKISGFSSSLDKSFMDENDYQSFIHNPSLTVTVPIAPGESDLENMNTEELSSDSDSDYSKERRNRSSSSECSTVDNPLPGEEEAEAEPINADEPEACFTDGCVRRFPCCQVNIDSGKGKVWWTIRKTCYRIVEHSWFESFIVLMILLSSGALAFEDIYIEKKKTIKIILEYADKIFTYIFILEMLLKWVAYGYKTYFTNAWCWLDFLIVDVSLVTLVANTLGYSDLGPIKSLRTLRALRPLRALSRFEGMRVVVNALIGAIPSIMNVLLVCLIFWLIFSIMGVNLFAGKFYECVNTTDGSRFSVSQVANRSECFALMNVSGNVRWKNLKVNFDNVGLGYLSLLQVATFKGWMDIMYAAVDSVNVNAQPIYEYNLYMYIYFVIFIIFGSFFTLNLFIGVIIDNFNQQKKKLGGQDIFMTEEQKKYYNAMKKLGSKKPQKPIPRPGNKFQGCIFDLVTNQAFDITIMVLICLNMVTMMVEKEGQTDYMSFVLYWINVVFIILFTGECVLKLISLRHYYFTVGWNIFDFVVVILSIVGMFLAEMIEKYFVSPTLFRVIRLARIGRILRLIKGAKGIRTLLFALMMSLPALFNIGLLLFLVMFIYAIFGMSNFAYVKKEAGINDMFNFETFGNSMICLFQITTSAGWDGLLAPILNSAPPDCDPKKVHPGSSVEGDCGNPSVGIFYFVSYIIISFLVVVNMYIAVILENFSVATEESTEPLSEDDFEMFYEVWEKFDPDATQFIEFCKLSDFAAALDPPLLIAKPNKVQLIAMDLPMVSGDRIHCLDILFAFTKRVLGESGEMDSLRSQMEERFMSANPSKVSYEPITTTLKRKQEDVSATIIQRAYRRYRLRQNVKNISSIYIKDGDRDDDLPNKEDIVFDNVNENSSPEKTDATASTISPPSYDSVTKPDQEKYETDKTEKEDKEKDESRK
# Sodium channel protein type 5 subunit alpha, sequence (Q14524 whole entry): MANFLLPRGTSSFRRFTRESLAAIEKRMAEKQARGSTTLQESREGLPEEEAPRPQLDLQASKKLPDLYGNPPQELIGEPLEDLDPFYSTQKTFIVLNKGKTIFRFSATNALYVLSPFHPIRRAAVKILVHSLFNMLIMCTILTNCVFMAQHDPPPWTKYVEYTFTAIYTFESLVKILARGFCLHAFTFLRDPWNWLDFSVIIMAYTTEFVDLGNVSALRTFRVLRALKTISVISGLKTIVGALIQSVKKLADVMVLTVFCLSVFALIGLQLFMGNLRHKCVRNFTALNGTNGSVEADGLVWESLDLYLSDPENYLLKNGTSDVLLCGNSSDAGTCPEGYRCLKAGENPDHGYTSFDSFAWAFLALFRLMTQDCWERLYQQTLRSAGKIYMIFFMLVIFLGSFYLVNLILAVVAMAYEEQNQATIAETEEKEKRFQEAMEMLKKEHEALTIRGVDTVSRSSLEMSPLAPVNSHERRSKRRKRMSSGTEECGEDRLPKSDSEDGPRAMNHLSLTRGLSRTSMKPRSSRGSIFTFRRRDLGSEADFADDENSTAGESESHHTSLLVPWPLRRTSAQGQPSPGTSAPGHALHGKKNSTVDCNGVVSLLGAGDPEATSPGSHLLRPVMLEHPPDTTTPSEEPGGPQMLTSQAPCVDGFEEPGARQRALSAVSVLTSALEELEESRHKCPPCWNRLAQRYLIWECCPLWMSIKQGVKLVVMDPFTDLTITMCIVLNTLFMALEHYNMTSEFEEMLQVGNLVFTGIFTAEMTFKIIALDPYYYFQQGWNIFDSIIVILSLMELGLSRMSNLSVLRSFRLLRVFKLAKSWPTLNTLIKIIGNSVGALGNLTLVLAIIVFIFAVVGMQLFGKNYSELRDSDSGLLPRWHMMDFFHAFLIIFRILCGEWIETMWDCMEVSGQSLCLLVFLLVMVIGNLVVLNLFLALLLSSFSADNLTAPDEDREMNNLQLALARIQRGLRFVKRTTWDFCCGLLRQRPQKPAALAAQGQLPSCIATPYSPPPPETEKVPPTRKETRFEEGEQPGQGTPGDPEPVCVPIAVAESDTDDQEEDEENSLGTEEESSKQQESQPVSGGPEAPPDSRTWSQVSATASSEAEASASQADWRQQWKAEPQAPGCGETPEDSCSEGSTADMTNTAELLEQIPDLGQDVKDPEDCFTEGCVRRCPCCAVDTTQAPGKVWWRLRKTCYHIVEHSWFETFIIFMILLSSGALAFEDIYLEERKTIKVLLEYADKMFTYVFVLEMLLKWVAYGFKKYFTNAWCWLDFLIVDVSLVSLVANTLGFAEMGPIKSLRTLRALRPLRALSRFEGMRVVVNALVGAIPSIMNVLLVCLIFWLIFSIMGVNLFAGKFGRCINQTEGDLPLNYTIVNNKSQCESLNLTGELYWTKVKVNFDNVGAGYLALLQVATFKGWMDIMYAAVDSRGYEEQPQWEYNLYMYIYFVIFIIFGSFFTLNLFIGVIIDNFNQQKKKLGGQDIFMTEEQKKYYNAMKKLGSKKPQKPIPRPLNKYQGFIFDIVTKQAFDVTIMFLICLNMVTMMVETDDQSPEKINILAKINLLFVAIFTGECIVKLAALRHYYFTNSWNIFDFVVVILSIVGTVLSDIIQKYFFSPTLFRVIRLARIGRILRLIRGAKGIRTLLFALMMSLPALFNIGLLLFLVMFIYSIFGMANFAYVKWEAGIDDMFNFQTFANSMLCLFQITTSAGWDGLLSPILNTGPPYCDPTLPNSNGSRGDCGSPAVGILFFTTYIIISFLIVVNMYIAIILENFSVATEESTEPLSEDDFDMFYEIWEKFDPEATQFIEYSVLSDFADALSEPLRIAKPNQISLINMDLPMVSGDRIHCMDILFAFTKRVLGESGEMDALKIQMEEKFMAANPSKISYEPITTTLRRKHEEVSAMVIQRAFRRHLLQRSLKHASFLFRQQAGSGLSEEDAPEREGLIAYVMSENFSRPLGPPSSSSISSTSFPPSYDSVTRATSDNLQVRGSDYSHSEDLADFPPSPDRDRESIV
Structure (SMILES),IC50 [2] [µM],IC50 [3] [nM],IC50 [4] [nM],IC50 [1] [µM],other results
O=C1COc2c(cccc2C2CCN(CC(O)COc3ccccc3C(=O)c3ccccc3)CC2)N1 (stereo not given),4.4,2100,780,7,–
O=C1COc2c(cccc2N2CCN(CC(O)COc3ccccc3C(=O)c3ccccc3)CC2)N1 (stereo not given),> 33,5000,3900,20,–
Cc1cccc(C)c1OCC(C)N.Cl (stereo not given) [MEXILETINE HYDROCHLORIDE],11,11000,–,–,ED50 (Mus musculus [5]): 21 mg/kg; IC50 [6]: 21000 nM; ID50 (Mus musculus [7]): 45 mg/kg
O=C(c1ccccc1)c1ccccc1OCC(O)CN1CCC(N2C(=O)COc3ccccc32)CC1 (stereo not given),4.8,1300,1100,5.2,–
O=C(c1ccccc1)c1ccccc1OCC(O)CN1CCC(N2Cc3ccccc3C2=O)CC1 (stereo not given),3.3,1200,1500,24,Tmax [12]: 30 min; Cmax [13]: 16 ng/mL; IC50 [6]: 3100 nM; AUC [14]: 18 ng·h/mL
O=C1c2ccccc2CN1C1CCN(CC(O)COc2ccccc2)CC1 (stereo not given),8,5000,3400,38,–
O=C1CCc2c(cccc2N2CCN(CC(O)COc3ccccc3C(=O)c3ccccc3)CC2)N1 (stereo not given),21,2400,3700,17,–
COc1cc(C(F)(F)F)ccc1COCC(O)CN1CCC(C(=O)Nc2ccccc2)CC1 (stereo not given),3.3,1300,1700,16,AUC [8]: 303 ng·h/mL; Tmax [9]: 30 min; Fu (Plasma): 4.18%; ED50 (Mus musculus [5]): 19 mg/kg; IC50 [6]: 2400 nM; ID50 (Mus musculus [7]): 111 mg/kg; selectivity ratio [15]: 5.8; Cmax [11]: 161 ng/mL
O=C(c1ccccc1)c1ccccc1OCC(O)CN1CCC(C(=O)Nc2ccccc2)CC1 (stereo not given),4.3,1000,1200,1.9,–
O=C(c1ccccc1)c1ccccc1OCC(O)CN1CCC(N2C(=O)Cc3ccccc32)CC1 (stereo not given),26,5000,9400,33,–
O=C1CCc2c(cccc2C2CCN(CC(O)COc3ccccc3C(=O)c3ccccc3)CC2)N1 (stereo not given),7.1,16000,1300,18,–
COc1ccccc1OCC(O)CN1CCC(N2Cc3ccccc3C2=O)CC1 (stereo not given),19,4800,5300,77,Tmax [12]: 30 min; Cmax [13]: 467 ng/mL; ED50 (Mus musculus [5]): 7 mg/kg; IC50 [6]: 34000 nM; ID50 (Mus musculus [7]): 20 mg/kg; selectivity ratio [15]: 2.9; AUC [14]: 692 ng·h/mL
O=C(c1ccccc1)c1ccccc1OCC(O)CN1CCN(c2cccc3[nH]c(=O)oc23)CC1 (stereo not given),> 33,31000,24000,> 33,–
O=C1c2ccccc2CN1C1CCN(CC(O)COc2ccccc2C(F)(F)F)CC1 (stereo not given),4.5,4800,2800,7.1,–
O=C(c1ccccc1)c1ccccc1OCC(O)CN1CCC(n2c(=O)oc3ccccc32)CC1 (stereo not given),5.4,3100,1800,3.4,–

# Now those with a lower IC50 [2], led by results:
IC50 [2] [µM],IC50 [3] [nM],IC50 [4] [nM],Structure (SMILES),IC50 [1] [µM],other results
0.8,400,700,O=C(NC1CCN(CC(O)COc2ccc(C(F)(F)F)cc2)CC1)c1ccccc1 (stereo not given),1.1,–
1.8,100,500,O=C1c2ccccc2CN1C1CCN(CC(O)COc2ccc(C(F)(F)F)cc2)CC1 (stereo not given),2.8,–
1.5,790,1200,COc1cc(C(F)(F)F)ccc1COCC(O)CN1CCC(N2Cc3ccccc3C2=O)CC1.O=C(O)/C=C/C(=O)O (stereo not given),6.1,AUC [8]: 1910 ng·h/mL; Tmax [9]: 30 min; Fu (Plasma): 5.55%; ED50 (Mus musculus [5]): 10 mg/kg; IC50 [6]: 670 nM; Activity (Mus musculus [10]): Toxic; Cmax [11]: 445 ng/mL
2.7,1300,1800,COc1ccc(OCC(O)CN2CCC(N3Cc4ccccc4C3=O)CC2)cc1 (stereo not given),13,–
0.91,330,480,COc1cc(C(F)(F)F)ccc1OCC(O)CN1CCC(N2Cc3ccccc3C2=O)CC1 (stereo not given),5.6,–
3,1500,1100,O=C1c2ccccc2CN1C1CCN(CC(O)COCc2ccc(C(F)(F)F)cc2)CC1 (stereo not given),3,–
0.92,960,900,O=C(c1ccccc1)c1cccc(OCC(O)CN2CCC(N3Cc4ccccc4C3=O)CC2)c1 (stereo not given),3.7,Tmax [12]: 30 min; Fu (Plasma): 1.99%; Cmax [13]: 169 ng/mL; IC50 [6]: 690 nM; AUC [14]: 525 ng·h/mL
0.67,590,380,O=C(c1ccccc1)c1ccc(OCC(O)CN2CCC(N3Cc4ccccc4C3=O)CC2)cc1 (stereo not given),1.2,–
3,910,1400,COc1cccc(OCC(O)CN2CCC(N3Cc4ccccc4C3=O)CC2)c1 (stereo not given),10,–
3.2,920,1100,O=C(NC1CCN(CC(O)COc2ccccc2C(=O)c2ccccc2)CC1)c1ccccc1 (stereo not given),4.9,–
1.2,790,1000,O=C1c2ccccc2CN1C1CCN(CC(O)COc2cccc(C(F)(F)F)c2)CC1 (stereo not given),4.4,–
3.1,800,1000,O=C(Nc1ccccc1)C1CCN(CC(O)COc2ccc(C(F)(F)F)cc2)CC1 (stereo not given),3.4,–
